Reference: patent US10894784B2, “Heteroarylbenzimidazole compounds” (BAYER PHARMA AKTIENGESELLSCHAFT, priority 2015, dated 2021)

Each compound was assayed against TBK1 (Homo sapiens (Human), UniProt Q9UHD2) (assay: TBK1 low ATP kinase assay (in vitro assay 1)). Settings: in vitro assay 1, read-out: TBK1 low ATP kinase assay IC50.
Format: biochemical

Chain of TBK1 (Q9UHD2 whole entry): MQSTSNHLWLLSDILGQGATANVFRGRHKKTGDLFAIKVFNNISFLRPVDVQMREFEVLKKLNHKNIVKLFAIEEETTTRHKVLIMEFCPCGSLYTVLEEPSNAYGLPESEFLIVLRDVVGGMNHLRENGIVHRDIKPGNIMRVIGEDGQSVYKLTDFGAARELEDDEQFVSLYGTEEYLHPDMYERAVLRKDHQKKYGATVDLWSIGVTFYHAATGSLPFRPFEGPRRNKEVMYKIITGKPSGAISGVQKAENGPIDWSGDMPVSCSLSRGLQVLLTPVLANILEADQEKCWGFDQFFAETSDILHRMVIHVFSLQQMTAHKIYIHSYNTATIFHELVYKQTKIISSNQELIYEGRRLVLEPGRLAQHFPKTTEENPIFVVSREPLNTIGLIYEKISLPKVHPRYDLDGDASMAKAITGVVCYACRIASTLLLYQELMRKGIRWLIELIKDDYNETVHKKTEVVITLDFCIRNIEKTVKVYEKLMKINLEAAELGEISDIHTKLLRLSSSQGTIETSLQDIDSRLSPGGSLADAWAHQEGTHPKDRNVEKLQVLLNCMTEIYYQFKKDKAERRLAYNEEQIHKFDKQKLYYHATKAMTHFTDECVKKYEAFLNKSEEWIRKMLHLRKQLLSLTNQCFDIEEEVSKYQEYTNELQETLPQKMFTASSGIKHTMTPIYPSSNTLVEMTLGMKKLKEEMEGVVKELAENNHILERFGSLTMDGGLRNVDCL

Compound	IC50 [µM]
CCOc1c(-c2ccncc2OC)ccc2nc(Nc3cc(CN4CCN(C(=O)C5CCC5)CC4)ccn3)[nH]c12 [Example 51.04, cyclobutyl{4-[(2-{[7-ethoxy-6-(3-methoxypyridin-4-yl)-1H-benzimidazol-2-yl]amino}pyridin-4-yl)methyl]piperazin-1-yl}methanone]	0.203
COCc1cc(-c2ccc3nc(Nc4cc(C(C)N5CCN(C(=O)OC(C)(C)C)CC5)ccn4)[nH]c3c2)ncn1 (single isomer, unassigned) [Example 84.01, tert-butyl 4-{(1R or 1S)-1-[2-({6-[6-(methoxymethyl)pyrimidin-4-yl]-1H-benzimidazol-2-yl}amino)pyridin-4-yl]ethyl}piperazine-1-carboxylate]	0.0011
O=C(CC(F)(F)F)N1CCN(Cc2ccnc(Nc3nc4ccc(-c5cc(C6CCOCC6)ncn5)cc4[nH]3)c2)CC1 [Example 199.02, 3,3,3-trifluoro-1-(4-{[2-({6-[6-(tetrahydro-2H-pyran-4-yl)pyrimidin-4-yl]-1H-benzimidazol-2-yl}amino)pyridin-4-yl]methyl}piperazin-1-yl)propan-1-one]	0.0419
COc1c(-c2ccc3nc(Nc4cc(CN5CCN(C(=O)CC(F)(F)F)CC5)ccn4)[nH]c3c2)ncnc1N(C)CC1CC1 [Example 110.04, 1-[4-({2-[(6-{6-[(cyclopropylmethyl)(methyl)amino]-5-methoxypyrimidin-4-yl}-1H-benzimidazol-2-yl)amino]pyridin-4-yl}methyl)piperazin-1-yl]-3,3,3-trifluoropropan-1-one]	0.062
Cc1noc(-c2ccc3nc(Nc4cc(CN5CCN(C(=O)C6CC6)CC5)ccn4)[nH]c3c2C)n1 [Example 54.02, cyclopropyl{4-[(2-{[7-methyl-6-(3-methyl-1,2,4-oxadiazol-5-yl)-1H-benzimidazol-2-yl]amino}pyridin-4-yl)methyl]piperazin-1-yl}methanone]	0.229
CC(C)(C)OC(=O)N1CCN(Cc2ccnc(Nc3nc4ccc(-c5ccncc5C#N)cc4[nH]3)c2)CC1 [Example 133.01, tert-butyl 4-[(2-{[6-(3-cyanopyridin-4-yl)-1H-benzimidazol-2-yl]amino}pyridin-4-yl)methyl]piperazine-1-carboxylate]	0.28
COc1cncnc1-c1ccc2nc(Nc3cc(C(C)N4CCN(C(=O)CC(F)(F)F)CC4)ccn3)[nH]c2c1 (single isomer, unassigned) [Example 35.03.01.B, 3,3,3-trifluoro-1-{4-[(1S or 1R)-1-(2-{[6-(5-methoxypyrimidin-4-yl)-1H-benzimidazol-2-yl]amino}pyridin-4-yl)ethyl]piperazin-1-yl}propan-1-one]	0.03
Cc1c(-c2ccc3nc(Nc4cc(CN5CCN(C(=O)OC(C)(C)C)CC5)ccn4)[nH]c3c2)ncnc1C(F)(F)F [Example 183.01, tert-butyl 4-{[2-({6-[5-methyl-6-(trifluoromethyl)pyrimidin-4-yl]-1H-benzimidazol-2-yl}amino)pyridin-4-yl]methyl}piperazine-1-carboxylate]	7.28
COc1cnccc1-c1ccc2nc(Nc3cc(CN4CCN(C(=O)OC(C)(C)C)CC4)ccn3)[nH]c2c1 [Example 04.01, tert-butyl 4-[(2-{[6-(3-methoxypyridin-4-yl)-1H-benzimidazol-2-yl]amino}pyridin-4-yl)methyl]piperazine-1-carboxylate]	0.0285
CC(c1ccnc(Nc2nc3ccc(-c4cnn(CC5CC5(F)F)c4)c(F)c3[nH]2)c1)N1CCN(C(=O)OC(C)(C)C)CC1 (single isomer, unassigned) [Example 86.01, tert-butyl 4-[(1R or 1S)-1-(2-{[6-(1-{[(1RS)-2,2-difluorocyclopropyl]methyl}-1H-pyrazol-4-yl)-7-fluoro-1H-benzimidazol-2-yl]amino}pyridin-4-yl)ethyl]piperazine-1-carboxylate]	0.011
COc1ccncc1-c1ccc2nc(Nc3cc(CN4CCN(C(=O)C5CCC5)CC4)ccn3)[nH]c2c1 [Example 14.01, cyclobutyl{4-[(2-{[6-(4-methoxypyridin-3-yl)-1H-benzimidazol-2-yl]amino}pyridin-4-yl)methyl]piperazin-1-yl}methanone]	0.195
COc1cncnc1-c1ccc2nc(Nc3cc(CN4CCN(C(=O)N(C)C)CC4)ccn3)[nH]c2c1 [Example 35.01.03, 4-[(2-{[6-(5-methoxypyrimidin-4-yl)-1H-benzimidazol-2-yl]amino}pyridin-4-yl)methyl]-N,N-dimethylpiperazine-1-carboxamide]	0.0591
CC(c1ccnc(Nc2nc3ccc(-c4cnn(CC5CC5(F)F)c4)cc3[nH]2)c1)N1CCN(C(=O)C2CC2)CC1 (single isomer, unassigned) [Example 55.03, cyclopropyl{4-[(1R or 1S)-1-(2-{[6-(1-{[(1RS)-2,2-difluorocyclopropyl]methyl}-1H-pyrazol-4-yl)-1H-benzimidazol-2-yl]amino}pyridin-4-yl)ethyl]piperazin-1-yl}methanone]	0.000564
O=C(C1CC1)N1CCN(Cc2ccnc(Nc3nc4ccc(-c5cc(N6CCCCC6)ncn5)cc4[nH]3)c2)CC1 [Example 145.03, cyclopropyl(4-{[2-({6-[6-(piperidin-1-yl)pyrimidin-4-yl]-1H-benzimidazol-2-yl}amino)pyridin-4-yl]methyl}piperazin-1-yl)methanone]	0.0021
Cc1nccc(-c2ccc3nc(Nc4cc(C(C)N5CCN(C(=O)CC6CC6)CC5)ccn4)[nH]c3c2)n1 (single isomer, unassigned) [Example 24.05.03.A, 2-cyclopropyl-1-{4-[(1R or 1S)-1-(2-{[6-(2-methylpyrimidin-4-yl)-1H-benzimidazol-2-yl]amino}pyridin-4-yl)ethyl]piperazin-1-yl}ethanone]	0.0454
Cc1noc(-c2ccc3nc(Nc4cc(CN5CCN(C(=O)CC6CC6)CC5(C)C)ccn4)[nH]c3c2)n1 [Example 16.04.03, 2-cyclopropyl-1-{3,3-dimethyl-4-[(2-{[6-(3-methyl-1,2,4-oxadiazol-5-yl)-1H-benzimidazol-2-yl]amino}pyridin-4-yl)methyl]piperazin-1-yl}ethanone]	0.378
CC(c1ccnc(Nc2nc3ccc(-c4cc(N5CCOCC5)ncn4)cc3[nH]2)c1)N1CCN(C(=O)CC(F)(F)F)CC1 (single isomer, unassigned) [Example 118.03, 3,3,3-trifluoro-1-(4-{(1R or 1S)-1-[2-({6-[6-(morpholin-4-yl)pyrimidin-4-yl]-1H-benzimidazol-2-yl}amino)pyridin-4-yl]ethyl}piperazin-1-yl)propan-1-one]	0.0014
Cc1cc(-c2ccc3nc(Nc4cc(CN5CCN(C(=O)CC(F)(F)F)CC5)ccn4)[nH]c3c2)c(F)cn1 [Example 131.02, 3,3,3-trifluoro-1-{4-[(2-{[6-(5-fluoro-2-methylpyridin-4-yl)-1H-benzimidazol-2-yl]amino}pyridin-4-yl)methyl]piperazin-1-yl}propan-1-one]	0.062
Cc1noc(-c2ccc3nc(Nc4cc(C(C)N5CCN(C(=O)OC(C)(C)C)CC5)ccn4)[nH]c3c2)n1 (racemic) [Example 16.05.01, (rac)-tert-butyl 4-[1-(2-{[6-(3-methyl-1,2,4-oxadiazol-5-yl)-1H-benzimidazol-2-yl]amino}pyridin-4-yl)ethyl]piperazine-1-carboxylate]	0.0825
